From PubChem BioAssay AID192 (DTP/NCI, 2004)
Several values for one entry are separate records, joined by “and”; a condition that tells them apart may be missing. Equal values may be shown once. Inconclusive results and toxic doses are left out. How the source made its calls: active means survival T/C of 150% or more; inactive means T/C below 125% in these data. Peptide text beside a SMILES is read from it. * marks the point of attachment. Boc = CC(C)(C)OC(=O)*

Test system: BDF1 mice, B16 melanoma ip, median survival T/C
Experiment: NCI In Vivo Anticancer Drug Screen. Data for tumor model B16 Melanoma (intraperitoneal) in B6D2F1 (BDF1) mice
Settings: endpoint: median survival time, higher = longer survival
Method in brief: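 The ratio T/C compares compound-treated mice with vehicle-treated controls, using survival or tumor size as the endpoint in a transplantable tumor model.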

[1] = dose: 50.0 mg/kg/injection, schedule: Q01DX009 (ip), vehicle: saline
[2] = dose: 100.0 mg/kg/injection, schedule: Q01DX009 (ip), vehicle: saline
[3] = dose: 200.0 mg/kg/injection, schedule: Q01DX009 (ip), vehicle: saline
[4] = dose: 12.5 mg/kg/injection, schedule: Q01DX009 (ip), vehicle: Klucel (hydroxypropylcellulose) (HPC)
[5] = dose: 25.0 mg/kg/injection, schedule: Q01DX009 (ip), vehicle: Klucel (hydroxypropylcellulose) (HPC)
[6] = dose: 50.0 mg/kg/injection, schedule: Q01DX009 (ip), vehicle: Klucel (hydroxypropylcellulose) (HPC)
[7] = dose: 100.0 mg/kg/injection, schedule: Q01DX009 (ip), vehicle: Klucel (hydroxypropylcellulose) (HPC)
[8] = dose: 200.0 mg/kg/injection, schedule: Q01DX009 (ip), vehicle: Klucel (hydroxypropylcellulose) (HPC)
[9] = dose: 6.25 mg/kg/injection, schedule: Q01DX009 (ip), vehicle: saline
[10] = dose: 12.5 mg/kg/injection, schedule: Q01DX009 (ip), vehicle: saline
[11] = dose: 25.0 mg/kg/injection, schedule: Q01DX009 (ip), vehicle: saline
[12] = dose: 1.56 mg/kg/injection, schedule: Q01DX009 (ip), vehicle: Klucel (hydroxypropylcellulose) (HPC)
[13] = dose: 6.25 mg/kg/injection, schedule: Q01DX009 (ip), vehicle: Klucel (hydroxypropylcellulose) (HPC)
[14] = dose: 50.0 mg/kg/injection, schedule: Q01DX009 (ip), vehicle: saline with Tween-80
[15] = dose: 100.0 mg/kg/injection, schedule: Q04DX003 (ip), vehicle: saline

Measured: T/C

CC(=O)C1(O)Cc2c(O)c3c(c(O)c2C(OC2CC(N)C(O)C(C)O2)C1)C(=O)c1ccccc1C3=O (centres undefined)
inactive: dose: 0.16 mg/kg/injection, schedule: Q01DX001 (ip), vehicle: water 117 % of control | dose: 0.31 mg/kg/injection, schedule: Q01DX001 (ip), vehicle: water 121 % of control | dose: 0.63 mg/kg/injection, schedule: Q01DX001 (ip), vehicle: water 123 % of control | dose: 1200.0 micrograms/kg/injection, schedule: Q04DX003 (ip), vehicle: water 94 % of control

CCOC(=N)c1cn(C2OC(CO)C(O)C2O)c2ncnc(N)c12 (centres undefined)
inactive: dose: 0.25 mg/kg/injection, schedule: Q01DX009 (ip), vehicle: saline 100 % of control | dose: 0.5 mg/kg/injection, schedule: Q01DX009 (ip), vehicle: saline 105 % of control

C=CCOCC(O)CN(CC)c1ccccc1 (centres undefined)
inactive: dose: 75.0 mg/kg/injection, schedule: Q04DX003 (ip), vehicle: Klucel (hydroxypropylcellulose) (HPC) 89 % of control | dose: 150.0 mg/kg/injection, schedule: Q04DX003 (ip), vehicle: Klucel (hydroxypropylcellulose) (HPC) 89 % of control | dose: 300.0 mg/kg/injection, schedule: Q04DX003 (ip), vehicle: Klucel (hydroxypropylcellulose) (HPC) 98 % of control

NCC(=O)NC(CCCN=C(N)N)C(=O)O (centres undefined)
inactive: [1] 103 % of control | [2] 98 % of control | [3] 92 % of control

O=C(Cl)C1(Br)CC2c3ccccc3C1([N+](=O)[O-])c1ccccc12 (centres undefined)
inactive: [4] 100 % of control | [5] 97 % of control | [6] 97 % of control | [7] 91 % of control | [8] 88 % of control

NC(=O)c1cc2c(N)[nH]nc2nc1N
inactive: [9] 106 % of control | [10] 100 % of control | [11] 95 % of control

CCOc1cc(N)ccc1C
inactive: [6] 93 % of control | [7] 93 % of control | [8] 95 % of control

C[C@H]1CN1C1=CC(=O)C(N2C[C@@H]2C)=CC1=O
inactive: dose: 0.5 mg/kg/injection, schedule: Q01DX009 (ip), vehicle: saline with Tween-80 102 % of control | dose: 1.0 mg/kg/injection, schedule: Q01DX009 (ip), vehicle: saline with Tween-80 106 % of control | dose: 2.0 mg/kg/injection, schedule: Q01DX009 (ip), vehicle: Klucel (hydroxypropylcellulose) (HPC) 123 % of control | dose: 4.0 mg/kg/injection, schedule: Q01DX009 (ip), vehicle: Klucel (hydroxypropylcellulose) (HPC) 115 % of control

CC(C)(C)OC(=O)NCC(=O)NCC(=O)O (Boc-Gly-Gly-OH)
inactive: [1] 94 % of control | [2] 96 % of control

NC(=O)Nc1cc(NC(N)=O)cc(N(CCCl)CCCl)c1
inactive: [12] 88 % of control | dose: 3.13 mg/kg/injection, schedule: Q01DX009 (ip), vehicle: Klucel (hydroxypropylcellulose) (HPC) 101 % of control | [13] 91 % of control | [4] 96 % of control | [5] 108 % of control | [6] 98 % of control

O=C1NNC(=O)NN1
inactive: [7] 118 % of control | [8] 106 % of control

CCNc1nc(NC(C)C)nc(SC)n1
inactive: [14] 117 % of control | dose: 100.0 mg/kg/injection, schedule: Q01DX009 (ip), vehicle: saline with Tween-80 106 % of control | dose: 200.0 mg/kg/injection, schedule: Q01DX009 (ip), vehicle: saline with Tween-80 104 % of control

OC1CCCC2CCCNC12 (centres undefined)
inactive: dose: 3.12 mg/kg/injection, schedule: Q01DX009 (ip), vehicle: saline with Tween-80 100 % of control | dose: 6.25 mg/kg/injection, schedule: Q01DX009 (ip), vehicle: saline with Tween-80 108 % of control | dose: 12.5 mg/kg/injection, schedule: Q01DX009 (ip), vehicle: saline with Tween-80 99 % of control | dose: 25.0 mg/kg/injection, schedule: Q01DX009 (ip), vehicle: saline with Tween-80 96 % of control | [14] 96 % of control

CCC[CH2][Sn]1([CH2]CCC)[O]C2C(CO)OC(n3ccc(N)nc3=O)C2[O]1 (centres undefined)
inactive: dose: 0.78 mg/kg/injection, schedule: Q01DX009 (ip), vehicle: Klucel (hydroxypropylcellulose) (HPC) 99 % of control | [12] 123 % of control | dose: 3.12 mg/kg/injection, schedule: Q01DX009 (ip), vehicle: Klucel (hydroxypropylcellulose) (HPC) 116 % of control | [13] 104 % of control and 124 % of control

COC(=O)c1ccc(C(=O)OC)[n+]([O-])c1
inactive: [15] 105 % of control | dose: 200.0 mg/kg/injection, schedule: Q04DX003 (ip), vehicle: saline 112 % of control | dose: 400.0 mg/kg/injection, schedule: Q04DX003 (ip), vehicle: saline 105 % of control

NNC(=O)c1ccc(Cl)cc1Nc1ccc(F)cc1
inactive: dose: 25.0 mg/kg/injection, schedule: Q04DX003 (ip), vehicle: saline 92 % of control | dose: 50.0 mg/kg/injection, schedule: Q04DX003 (ip), vehicle: saline 97 % of control | [15] 100 % of control

CC[P+](CC)(CC)c1ccccc1
inactive: [9] 101 % of control | [10] 110 % of control | [11] 111 % of control

CC(C)N1CSC(=S)N(Cc2ccccc2)C1
inactive: [7] 96 % of control | [8] 105 % of control

CCOC(=O)CN1CCC2CC1c1c([nH]c3ccccc13)C2c1cc2c(cc1OC)N(C)C1C(O)(C(=O)OC)C(OC(C)=O)C3(CC)C=CCN4CCC21C43 (centres undefined)
inactive: dose: 0.06 mg/kg/injection, schedule: Q01DX009 (ip), vehicle: other 96 % of control | dose: 0.13 mg/kg/injection, schedule: Q01DX009 (ip), vehicle: other 108 % of control | dose: 0.5 mg/kg/injection, schedule: Q01DX009 (ip), vehicle: other 96 % of control | dose: 1.0 mg/kg/injection, schedule: Q01DX009 (ip), vehicle: other 104 % of control | dose: 2.0 mg/kg/injection, schedule: Q01DX009 (ip), vehicle: other 117 % of control

CN(C)CC(Cl)CCl (centres undefined)
inactive: [1] 98 % of control | [2] 102 % of control | [3] 105 % of control | dose: 400.0 mg/kg/injection, schedule: Q01DX009 (ip), vehicle: saline 108 % of control

NC1=NCN(C2OC(CO)C(O)C2O)C(=O)N1 (centres undefined)
inactive: dose: 1.56 mg/kg/injection, schedule: Q01DX009 (ip), vehicle: saline 92 % of control and 110 % of control | dose: 3.12 mg/kg/injection, schedule: Q01DX009 (ip), vehicle: saline 96 % of control | dose: 3.12 mg/kg/injection, schedule: Q01DX009 (ip), vehicle: suspension in saline 93 % of control | [9] 94 % of control and 110 % of control | dose: 6.25 mg/kg/injection, schedule: Q01DX009 (ip), vehicle: suspension in saline 110 % of control | [10] 110 % of control | dose: 12.5 mg/kg/injection, schedule: Q01DX009 (ip), vehicle: suspension in saline 110 % of control | [11] 94 % of control and 111 % of control | dose: 25.0 mg/kg/injection, schedule: Q01DX009 (ip), vehicle: suspension in saline 89 % of control | [1] 111 % of control | [3] 111 % of control and 119 % of control

CCOC(=O)C(Br)C(=O)OCC
inactive: dose: 0.58 mg/kg/injection, schedule: Q04DX003 (ip), vehicle: saline 97 % of control | dose: 1.17 mg/kg/injection, schedule: Q04DX003 (ip), vehicle: saline 100 % of control | dose: 2.34 mg/kg/injection, schedule: Q04DX003 (ip), vehicle: saline 97 % of control | dose: 4.68 mg/kg/injection, schedule: Q04DX003 (ip), vehicle: saline 93 % of control
